Test results reported in publication PMC4603696, “Discovery and characterization of novel small-molecule inhibitors targeting nicotinamide phosphoribosyltransferase” (Scientific Reports, 2015).

Assays:
HCT116 cells = experiment: SRB assay in HCT116; type: cell-based; details: Homo sapiens, HCT-116, read-out: anti-proliferation IC50, initial screen
Procedure: (§1) Sulfor hod am ine B p rotei n st ai ning (SRB) assay
(§2) Cell pr oliferat ion was eva lua ted by sul for hod amine B pr ot ein st aini ng (SRB) assa y10-12.
(§3) Briefly, cel ls were se ede d int o 96-well pl ates, cul tur ed overni ght , and trea ted with correspond ing com poun ds for 72 h. Cells were the n fixe d with 10% trichl or oa cetic aci d and st ained with sul for hoda mine B (Sigm a). Sul for hoda mine B in the cells was di sso lved in 10 mmol/L Tris-HCl and was measured at 515 nm usi ng a multiw ell spect ropho tometer (VERSA max, Mol ecul ar Devi ces, Sunnyva le, CA). The inhi bi tion rat e on cell pr olif eratio n was cal culated for each well as (A515contr ol cells-A 515tr eated cells)/A515contr ol cells×100 % (A515:
(§4) OD va lue at 515 nm ). The averag e IC50 va lue s were de termine d by Logit method from at leas t t hr eei nde pe nde nt test s.

HepG2 cells = experiment: Cell counting kit-8 (CCK-8) cell viability assay in HepG2; type: cell-based, human
Procedure: (§5) Cellc ount ing k it-8 (CCK-8) assa y
Cell vi ability was de termine d by ou r previ ous method9 usi ng the Cell Counting Kit-8 (CCK -8, Dojindo, Ja pa n). In hu man he pa tocellu lar carcinom a cell line HepG 2, cells were seede d in 96-well plate and starve d for ove r 12 h with se rum-free DMEM at 60~ 70% conf lue nc y, the n trea ted wit h com pounds or ve hicle for 24 h to 72 h accor ding to expe riment requi rement s. […]
(§6) 10 μl CCK-8 sol ution was adde d to the cul ture medium and inc ub ated at 37 °C for 1 h. Th e absor banc e at 450 nm (A450) was de tected by a pl ate reade r. Each e xperi ment w as carr ied out i n t riplic ate i n thr ee r eplic ate w ells.

[1] = tested on: osteosarcoma cell line U2OS; experiment: SRB assay in U2OS; type: cell-based, human; details: 72 hours
Procedure: as §1, §2, §3, §4

NAD level of HepG2 cells = experiment: Cellular NAD level, spectrophotometric enzymatic cycling assay; type: cell-based, human
Excerpt: F0 was the average d fluo rescen ce of si x backgr ound control s, repres ent ing zero activ ity from a si mul ated enz ym e reaction wit h on ly NAMP T but no NAM and com pound; F100 % was the average d fluorescen ce of si x ref erence cont rols, repr ese nt ing 100% activ ity from int act enz ym e reaction w ithou t com pound p ert ur bation.
Compounds with Activ ity% less tha n 40% were consi dered as inhi bi tor s and subj ect ed to a secondary screen inhi bition valida tion, in whi ch anot her backgr oun d cont rol (FC0), a si mul ated enz ym e reaction with NAMP Tand com pound but no NAM, was int roduced to elimina te the di rec t and /or ind irect inf lue nc e fro m compou nd. At thi s st age , the Activ ity% was cal culated accor ding t o e qua tion ( 2) :
In the screeni ng, the si gna l-to- noi se (S/N) rat io was cal cul ated usi ng the equa tion: (Mean signal -Mean backgr oun d) / SD backgr oun d4. Coe fficient s of vari atio n (CV) were the ratio of SD to mean. The Z ’f act or w as de term ine d by e qua tion (3) 5:
Z' −= (3)1−3(S Dhi ghsigna l+SDlowsigna l)
Mean hi gh signa l Meanlow signa l
Determ inat ion of IC50 for NAMPT inhi bitor s […]
vari ous con cent ration s were adde d int o 96-well pl ate. The pl ate was inc uba ted at 37 °C for 5 min after addition of 16.5 μl react ion buf fer cont aini ng N AMP T. The enz ym e reactions were ini tiated by 4.5 μl NAM (1.1 1 μM) follow ing NMN measurem ent as de scri bed above . […]
Cellul ar level of NAD was measured by spe ctrophot om etric enz ym atic cyc ling assa y, as de scri bed pr evi ousl y6-8. […]
Cell vi ability was de termine d by ou r previ ous method9 usi ng the Cell Counting Kit-8 (CCK -8, Dojindo, Ja pa n). […] Th e absor banc e at 450 nm (A450) was de tected by a pl ate reade r. […]
Briefly, cel ls were se ede d int o 96-well pl ates, cul tur ed overni ght , and trea ted with correspond ing com poun ds for 72 h. […] Sul for hoda mine B in the cells was di sso lved in 10 mmol/L Tris-HCl and was measured at 515 nm usi ng a multiw ell spect ropho tometer […]

Huh7-C cells = experiment: CCK-8 assay in stem-like human hepatoma cell line Huh7-C; type: cell-based; details: 60 h, read-out: CCK-8 assay in Huh7-C: IC50
Procedure: as §5
Cell vi ability was de termine d by ou r previ ous method9 usi ng the Cell Counting Kit-8 (CCK -8, […]
as §6

SMILES: O=S(=O)(c1ccc(NC(=S)NCc2cccnc2)cc1)N1CCCCC1 [MS0]
- IC50 (HCT116 cells): < 5000 nM
- cell viability (CCK-8), time course (HepG2 cells; HepG2, 10 μM, treatment for ≥36 hours): markedly inhibited
- cell viability (CCK-8) (HepG2 cells; HepG2, 24 hours, up to 10 μM): almost had no changes
- IC50 (HepG2 cells; Homo sapiens, HepG2, 48 h, read-out: CCK-8 assay in HepG2: IC50): 703 ± 95.4 nM
- growth inhibition (SRB, in words) [1]: potent growth inhibition
- decrease of cellular NAD level (NAD level of HepG2 cells; HepG2, 1 μM, 24 hours): ~ 70%
- IC50 (NAD level of HepG2 cells; Homo sapiens, HepG2, 24 hours treatment, read-out: IC50 for reducing NAD level): 93.7 nM
- IC50 (Huh7-C cells): 722 ± 36.3 nM
